Read-outs that look alike come from different tables or passages of the source.
Assays:
[1] = test system: Puccinia recondita f. sp. tritici; test: Fungicidal activity against Puccinia recondita f. sp. tritici / wheat / leaf disc preventative (brown rust); format: in vivo; details: foliar, 200 ppm in the applied formulation, wheat leaf segments cv. Kanzler, preventative (inoculated 1 day after application), assessed 7 to 9 days after application, read-out: disease control compared to untreated control leaf disks
Procedure: (§1) Leaf disks or leaf segments of various plant species are cut from plants grown in a greenhouse. The cut leaf disks or segments are placed in multiwell plates (24-well format) onto water agar. The leaf disks are sprayed with a test solution before (preventative) or after (curative) inoculation. Compounds to be tested are prepared as DMSO solutions (max. 10 mg/ml) which are diluted to the appropriate concentration with 0.025% Tween20 just before spraying. The inoculated leaf disks or segments are incubated under defined conditions (temperature, relative humidity, light, etc.) according to the respective test system. A single evaluation of disease level is carried out 3 to 14 days after inoculation, depending on the pathosystem. Percent disease control relative to the untreated check leaf disks or segments is then calculated. General Examples of Liquid Culture Tests in Well Plates:
Example 1: Fungicidal Activity Against Puccinia recondita f. sp. tritici/Wheat/Leaf Disc Preventative (Brown Rust)
Wheat leaf segments cv. Kanzler were placed on agar in multiwell plates (24-well format) and sprayed with the formulated test compound diluted in water. The leaf disks were inoculated with a spore suspension of the fungus 1 day after application. The inoculated leaf segments were incubated at 19C and 75% relative humidity (rh) under a light regime of 12 hours light/12 hours darkness in a climate cabinet and the activity of a compound was assessed as percent disease control compared to untreated when an appropriate level of disease damage appears in untreated check leaf segments (7 to 9 days after application).
(§2) The following compounds at 200 ppm in the applied formulation give at least 80% disease control in this test when compared to untreated control leaf disks under the same conditions, which show extensive disease development.

Phakopsora pachyrhizi = test: Fungicidal activity against Phakopsora pachyrhizi / soybean / leaf disc preventative (Asian soybean rust); format: in vivo; details: foliar, read-out: disease control compared to untreated control leaf disks
Procedure: as §1
Example 3: Fungicidal Activity Against Phakopsora pachyrhizi/Soybean/Leaf Disc Preventative (Asian Soybean Rust)
Soybean leaf disks are placed on water agar in multiwell plates (24-well format) and sprayed with the formulated test compound diluted in water. One day after application leaf discs are inoculated by spraying a spore suspension on the lower leaf surface. After an incubation period in a climate cabinet of 24-36 hours in darkness at 20° C. and 75% rh leaf disc are kept at 20° C. with 12 h light/day and 75% rh. The activity of a compound is assessed as percent disease control compared to untreated when an appropriate level of disease damage appears in untreated check leaf disks (12 to 14 days after application).
as §2

[2] = test system: Glomerella laqenarium (Colletotrichum lagenarium); test: Fungicidal activity against Glomerella lagenarium (Colletotrichum lagenarium) liquid culture / cucumber / preventative (anthracnose); format: cell-based; details: Colletotrichum orbiculare, read-out: disease control compared to untreated control (inhibition of growth measured photometrically)
Procedure: Mycelia fragments or conidia suspensions of a fungus prepared either freshly from liquid cultures of the fungus or from cryogenic storage, are directly mixed into nutrient broth. DMSO solutions of the test compound (max. 10 mg/ml) are diluted with 0.025% Tween20 by a factor of 50 and 10 μl of this solution is pipetted into a microtiter plate (96-well format). The nutrient broth containing the fungal spores/mycelia fragments is then added to give an end concentration of the tested compound. The test plates are incubated in the dark at 24° C. and 96% relative humidity. The inhibition of fungal growth is determined photometrically after 2 to 7 days, depending on the pathosystem, and percent antifungal activity relative to the untreated check is calculated.
Example 4: Fungicidal Activity Against Glomerella laqenarium (Colletotrichum lagenarium) Liquid Culture/Cucumber/Preventative (Anthracnose)
Conidia of the fungus from cryogenic storage are directly mixed into nutrient broth (PDB—potato dextrose broth). After placing a (DMSO) solution of test compound into a microtiter plate (96-well format), the nutrient broth containing the fungal spores is added. The test plates are incubated at 24° C. and the inhibition of growth is measured photometrically 3 to 4 days after application.
The following compounds at 20 ppm in the applied formulation give at least 80% disease control in this test when compared to untreated control under the same conditions, which show extensive disease development.

[3] = test system: Puccinia recondita f. sp. tritici; test: Fungicidal activity against Puccinia recondita f. sp. tritici / wheat / leaf disc curative (brown rust); format: in vivo; details: foliar, 200 ppm in the applied formulation, wheat leaf segments cv. Kanzler, curative (applied 1 day after inoculation), assessed 6 to 8 days after application, read-out: disease control compared to untreated control leaf disks
Procedure: as §1
Example 2: Fungicidal Activity Against Puccinia recondita f. sp. Tritici/Wheat/Leaf Disc Curative (Brown Rust)
Wheat leaf segments cv. Kanzler are placed on agar in multiwell plates (24-well format). The leaf segments are then inoculated with a spore suspension of the fungus. Plates were stored in darkness at 19° C. and 75% relative humidity. The formulated test compound diluted in water was applied 1 day after inoculation. The leaf segments were incubated at 19° C. and 75% relative humidity under a light regime of 12 hours light/12 hours darkness in a climate cabinet and the activity of a compound was assessed as percent disease control compared to untreated when an appropriate level of disease damage appears in untreated check leaf segments (6 to 8 days after application).
as §2

[4] = 200 ppm in the applied formulation, soybean leaf disks, preventative (inoculated one day after application), assessed 12 to 14 days after application
[5] = 20 ppm in the applied formulation, liquid culture in PDB, 24° C., 3 to 4 days after application

| Compound | pest or weed control at 200 ppm (Phakopsora pachyrhizi; [4]) [%] | inhibition at 20 ppm [2, 5] [%] | other results |
| --- | --- | --- | --- |
| CN(C(=O)c1ccc(-c2noc(C(F)(F)F)n2)cc1)C1CCN(C(=O)OC(C)(C)C)C1 (stereo not shown) [Compound 1a.1, tert-butyl 3-[methyl-[4-[5-(trifluoromethyl)-1,2,4-oxadiazol-3-yl]benzoyl]amino]pyrrolidine-1-carboxylate] | ≥ 80 | ≥ 80 | pest or weed control at 200 ppm [1]: ≥ 80% |
| CCCN(CC1CC1)C(=O)c1ccc(-c2noc(C(F)(F)F)n2)cc1 [Compound 2a.1, N-(cyclopropylmethyl)-N-propyl-4-[5-(trifluoromethyl)-1,2,4-oxadiazol-3-yl]benzamide] | ≥ 80 | ≥ 80 | – |
| CC(C#N)(NC(=O)c1ccc(-c2noc(C(F)(F)F)n2)cc1F)C1CC1 (stereo not shown) [Compound 2b.9, N-(1-cyano-1-cyclopropyl-ethyl)-2-fluoro-4-[5-(trifluoromethyl)-1,2,4-oxadiazol-3-yl]benzamide] | ≥ 80 | – | pest or weed control at 200 ppm [1]: ≥ 80%; pest or weed control at 200 ppm [3]: ≥ 80% |
| CN(CCCO)C(=O)c1ccc(-c2noc(C(F)(F)F)n2)cc1 [Compound 3a.6, N-(3-hydroxypropyl)-N-methyl-4-[5-(trifluoromethyl)-1,2,4-oxadiazol-3-yl]benzamide] | ≥ 80 | – | pest or weed control at 200 ppm [3]: ≥ 80% |
| CN(CC(C)(C)CO)C(=O)c1ccc(-c2noc(C(F)(F)F)n2)cc1 [Compound 3a.8, N-(3-hydroxy-2,2-dimethyl-propyl)-N-methyl-4-[5-(trifluoromethyl)-1,2,4-oxadiazol-3-yl]benzamide] | ≥ 80 | ≥ 80 | – |
| CC(CCO)NC(=O)c1ccc(-c2noc(C(F)(F)F)n2)cc1 (stereo not shown) [Compound 3a.15, N-(3-hydroxy-1-methyl-propyl)-4-[5-(trifluoromethyl)-1,2,4-oxadiazol-3-yl]benzamide] | ≥ 80 | – | pest or weed control at 200 ppm [3]: ≥ 80% |
| CN(CCCCO)C(=O)c1ccc(-c2noc(C(F)(F)F)n2)cc1 [Compound 3a.19, N-(4-hydroxybutyl)-N-methyl-4-[5-(trifluoromethyl)-1,2,4-oxadiazol-3-yl]benzamide] | ≥ 80 | – | – |
| O=C(NCCCCCO)c1ccc(-c2noc(C(F)(F)F)n2)cc1 [Compound 3a.21, N-(5-hydroxypentyl)-4-[5-(trifluoromethyl)-1,2,4-oxadiazol-3-yl]benzamide] | ≥ 80 | – | pest or weed control at 200 ppm [3]: ≥ 80% |
| CC(C)CN(CC(C)C)C(=O)c1ccc(-c2noc(C(F)(F)F)n2)cc1 [Compound 3a.23, N,N-diisobutyl-4-[5-(trifluoromethyl)-1,2,4-oxadiazol-3-yl]benzamide] | ≥ 80 | ≥ 80 | – |
| CCCCN(CCO)C(=O)c1ccc(-c2noc(C(F)(F)F)n2)cc1 [Compound 3a.25, N-butyl-N-(2-hydroxyethyl)-4-[5-(trifluoromethyl)-1,2,4-oxadiazol-3-yl]benzamide] | ≥ 80 | ≥ 80 | – |
| CCOC(=O)CC(C)NC(=O)c1ccc(-c2noc(C(F)(F)F)n2)cc1 (stereo not shown) [Compound 3a.26, ethyl 3-[[4-[5-(trifluoromethyl)-1,2,4-oxadiazol-3-yl]benzoyl]amino]butanoate] | ≥ 80 | ≥ 80 | pest or weed control at 200 ppm [1]: ≥ 80% |
| CCCCCCNC(=O)c1ccc(-c2noc(C(F)(F)F)n2)cc1 [Compound 3a.29, N-hexyl-4-[5-(trifluoromethyl)-1,2,4-oxadiazol-3-yl]benzamide] | – | – | pest or weed control at 200 ppm (Phakopsora pachyrhizi): ≥ 80%; inhibition at 20 ppm [2]: ≥ 80% |
| CCC(CC)CNC(=O)c1ccc(-c2noc(C(F)(F)F)n2)cc1 [Compound 3a.39, N-(2-ethylbutyl)-4-[5-(trifluoromethyl)-1,2,4-oxadiazol-3-yl]benzamide] | ≥ 80 | ≥ 80 | – |
| CC(C)(CCO)NC(=O)c1ccc(-c2noc(C(F)(F)F)n2)cc1 [Compound 3a.42, N-(3-hydroxy-1,1-dimethyl-propyl)-4-[5-(trifluoromethyl)-1,2,4-oxadiazol-3-yl]benzamide] | ≥ 80 | – | – |
| CN(CCCO)C(=O)c1ccc(-c2noc(C(F)(F)F)n2)cc1F [Compound 3b.9, 2-fluoro-N-(3-hydroxypropyl)-N-methyl-4-[5-(trifluoromethyl)-1,2,4-oxadiazol-3-yl]benzamide] | ≥ 80 | – | pest or weed control at 200 ppm [3]: ≥ 80% |
| COCCN(C(=O)c1ccc(-c2noc(C(F)(F)F)n2)cc1F)C(C)C [Compound 3b.13, 2-fluoro-N-isopropyl-N-(2-methoxyethyl)-4-[5-(trifluoromethyl)-1,2,4-oxadiazol-3-yl]benzamide] | ≥ 80 | ≥ 80 | – |
| CC(CCO)NC(=O)c1ccc(-c2noc(C(F)(F)F)n2)cc1F (stereo not shown) [Compound 3b.17, 2-fluoro-N-(3-hydroxy-1-methyl-propyl)-4-[5-(trifluoromethyl)-1,2,4-oxadiazol-3-yl]benzamide] | ≥ 80 | – | pest or weed control at 200 ppm [3]: ≥ 80% |
| CN(CCO)C(=O)c1ccc(-c2noc(C(F)(F)F)n2)cc1F [Compound 3b.25, 2-fluoro-N-(2-hydroxyethyl)-N-methyl-4-[5-(trifluoromethyl)-1,2,4-oxadiazol-3-yl]benzamide] | ≥ 80 | – | – |
| O=C(NCCCCO)c1ccc(-c2noc(C(F)(F)F)n2)cc1F [Compound 3b.26, 2-fluoro-N-(4-hydroxybutyl)-4-[5-(trifluoromethyl)-1,2,4-oxadiazol-3-yl]benzamide] | ≥ 80 | ≥ 80 | pest or weed control at 200 ppm [1]: ≥ 80% |
| CCC(CC)CNC(=O)c1ccc(-c2noc(C(F)(F)F)n2)cc1F [Compound 3b.42, N-(2-ethylbutyl)-2-fluoro-4-[5-(trifluoromethyl)-1,2,4-oxadiazol-3-yl]benzamide] | ≥ 80 | – | – |
| Cc1cc(C#N)c(NC(=O)c2ccc(-c3noc(C(F)(F)F)n3)cc2)s1 [Compound 5a.1, N-(3-cyano-5-methyl-2-thienyl)-4-[5-(trifluoromethyl)-1,2,4-oxadiazol-3-yl]benzamide] | ≥ 80 | – | – |
| O=C(Nc1cn[nH]c1)c1ccc(-c2noc(C(F)(F)F)n2)cc1 [Compound 5a.3, N-(1H-pyrazol-4-yl)-4-[5-(trifluoromethyl)-1,2,4-oxadiazol-3-yl]benzamide] | ≥ 80 | – | – |
| COC1=NS(C)=NC(N(C)C(=O)c2ccc(-c3noc(C(F)(F)F)n3)cc2F)=N1 (stereo not shown) [Compound 5b.8, 2-fluoro-N-(5-methoxy-1-methyl-1-thia-2,4,6-triazacyclohexa-2,4,6-trien-3-yl)-N-methyl-4-[5-(trifluoromethyl)-1,2,4-oxadiazol-3-yl]benzamide] | ≥ 80 | – | – |
